Values of other authors, collected in EP2221049A2, “SOLID PHARMACEUTICAL COMPOSITION OF DED ANOSINE” (Blanver Farmoquimica, LTDA, priority 2007, dated 2009).

Conditions: pH below 3, 37°C

## OC[C@@H]1CC[C@H](n2cnc3c(O)ncnc32)O1 [didanosine, 2',3'-dideoxyinosine]
  time period in which 10% of didanosine is decomposed to hypoxanthine: < 2 min
